# From US20130022620A1, “ASSAYS AND METHODS PERTAINING TO PRE-AMYLOID INTERMEDIATES” (priority 2011, published 2013)
# Assays:
# rat INS-1 β-cells = assay: AlamarBlue cell viability assay of β-cells; format: cell-based
# Experimental: Transformed rat insulinoma-1 (INS-1) β-cells (which express RAGE) are a pancreatic beta cell line commonly used for studies of h-IAPP induced toxicity. INS-1 cells were grown in RPMI 1640 supplemented with 10% fetal bovine serum (FBS), 11 mM glucose, 10 mM Hepes, 2 mM L-glutamine, 1 mM sodium pyruvate, 50 μM β-mercaptoethanol, 100 U/ml penicillin, and […] streptomycin. Cells were maintained at 37° C./5% CO2.
# (§1) Cyto-toxicity was measured by AlamarBlue assay. INS-1 β-cells were seeded at a density of 30,000 cells per well in 96-well plates and cultured for 24 hours prior to stimulation with IAPP. Human and rat IAPP were dissolved and incubated in 16 mM tris HCl (pH 7.4, 25° C.) prior to cell stimulation. AlamarBlue was diluted ten-fold in culture media and cells were incubated for 5 hours at 37° C. Fluorescence (excitation 530; emission 590 nm) was measured on a Beckman Coulter DTX880 fluorescent plate reader. Values calculated were relative to those of control cells treated with buffer only. All values represent means±SEM (n=3).
# Changes in cell morphology were examined by light microscopy to provide a second method of evaluating cell viability. Transformed rat INS-1 beta cells were photographed immediately prior to assessment of toxicity by Alamar blue cell viability assays. Images were taken using an Olympus BX-61 light microscope.
# [1] = tested on: MCP-1 and IL-1β mRNA expression; assay: qRT-PCR of MCP-1 and IL-1β mRNA in β-cells; format: cell-based, rat; conditions: β-cells stimulated with peptide
# Experimental: Assays for qRT-PCR were carried out in 6-well plates. Total cellular RNA was isolated from h-IAPP stimulated β-cells using Qiagen RNA isolation kit, and the quality of RNA samples was determined by measurement of 260:280 ratio. Only samples with a 260:280 ratio of 2.0 or higher were used for reverse transcription. RNA samples were also treated by RNAse-free DNAse to avoid genomic DNA contamination. One microgram of RNA from each sample was reverse-transcribed to cDNA using MCP-1 and IL-1β primers. Non-template negative controls were also performed to monitor non-specific reactions. RNA isolated from rat IAPP and non-h-IAPP treated beta cells were used as negative controls. Equal amounts of RNA were used in each qRT-PCR reaction, and 18S was used as the internal control for amplification at the same time. qRT-PCR reactions were carried out using an Applied Biosystems 7500 RealTime PCR machine. The relative mRNA contents were normalized using 18S and quantification was carried out using qRT-PCR Quantifier Software.
# sRAGE = biological target: T1, sRAGE (Homo sapiens, UniProt Q15109); assay: Surface plasmon resonance binding to immobilized sRAGE; conditions: 20 μM h-IAPP
# T1 construct: the soluble extracellular domain of RAGE (sRAGE); made in house; host or cells: Sf9 insect cells (baculovirus)
# T1 sequence (Q15109 23-342): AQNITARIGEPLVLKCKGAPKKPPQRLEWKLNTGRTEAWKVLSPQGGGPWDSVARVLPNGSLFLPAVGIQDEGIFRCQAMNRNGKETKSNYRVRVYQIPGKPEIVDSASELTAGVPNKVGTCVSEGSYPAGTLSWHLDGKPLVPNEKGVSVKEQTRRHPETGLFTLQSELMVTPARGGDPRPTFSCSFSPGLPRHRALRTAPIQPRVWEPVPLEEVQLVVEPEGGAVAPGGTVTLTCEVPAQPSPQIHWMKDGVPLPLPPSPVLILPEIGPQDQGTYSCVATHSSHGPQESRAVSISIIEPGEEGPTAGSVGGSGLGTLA
# Experimental: A 20 μM h-IAPP solution was prepared in 16 mM tris HCl buffer (pH 7.4) and aliquots of the reaction were analyzed for binding at various incubation times after peptide dissolution. All SPR binding experiments were carried out on a GE Healthcare SPR instrument in the laboratory of Dr. Donald Landry at Columbia University Medical Center.
# mouse pancreatic islets = assay: AlamarBlue cell viability assay of pancreatic islets; format: cell-based; conditions: FVB
# [2] = tested on: mouse aortic smooth muscle cells; assay: AlamarBlue cell viability assay of aortic smooth muscle cells; format: cell-based
# Experimental: as §1, with “Mouse vascular SMCs were cultured from the aortas of 10-week-old male mice using a modification of the procedure of Tarvo and Barret. See Tarvo et al. Blood Vessels. 1980; 17:110-116. SMCs were cultured following an explant protocol in accordance with institutional guidelines. […] Cyto-toxicity” for “Cyto-toxicity”
# [3] = format: physicochemical
# Experimental: We recorded 2D-IR spectra of the intermediate species. The results are consistent with a lack of beta sheet structure and support the CD data (FIG. 4B). […] Samples of h-IAPP intermediates and h-IAPP amyloid fibrils were pelleted at 20,000 G for 20 minutes and the amount of soluble peptide remaining in the supernatant was measured. […] Characterization of the species in the supernatant and resuspended pellet by thioflavin-T and TEM, before addition of the solutions to cultured cells, confirm the absence of amyloid in the soluble phase and the presence of amyloid in the resuspended pellet. […] ANS is a small hydrophobic dye which has been widely used in protein folding studies. It typically binds to partially structured states which are rich in secondary structure, compact, but which have not yet established the final tertiary structure. […] The dye did bind to the final amyloid fibrils; an effect that is mediated in part by electrostatic interactions. A set of p-cyano-phenylalanine (p-cyanoPhe) analogs of h-IAPP were examined to probe further the nature of the toxic intermediate species. h-IAPP contains two phenylalanines at positions 15 and 23 and a single tyrosine located at the C-terminus. A set of three analogs were prepared in which one aromatic residue was replaced by p-cyanoPhe. […] It can also be quenched via FRET to tyrosine. p-CyanoPhe fluorescence is high for unaggregated IAPP and is quenched in the amyloid fibers. The intermediate species have high p-cyanoPhe fluorescence intensity and the value is the same as that of freshly dissolved material.
# [4] = Far-UV CD of h-IAPP species; format: physicochemical; conditions: at time points of toxicity
# Experimental: CD measurements of IAPP, sRAGE and IAPP/sRAGE reactions were taken at various incubation times. Far-UV CD experiments monitor the development of secondary structure of h-IAPP species and give insight into the conformational requirement for IAPP/RAGE-binding. All CD experiments were performed on an Applied Photophysics circular dichroism spectrophotometer by directly transferring 300 μL of peptide solution from kinetic assays into a 0.1 cm quartz cuvette a few minutes prior to data collection. The CD spectra for sRAGE and tris HCl buffer was subtracted from all RAGE/IAPP mixtures. The final far-UV CD data was collected over the range of 190 to 260 nm. Final solution conditions contained 16 mM tris HCl (pH 7.4).
smiles,measurement,setting,value
"CC[C@H](C)[C@H](NC(=O)[C@H](C)NC(=O)CNC(=O)[C@H](Cc1ccccc1)NC(=O)[C@H](CC(N)=O)NC(=O)[C@H](CC(N)=O)NC(=O)[C@H](CO)NC(=O)[C@H](CO)NC(=O)[C@H](Cc1c[nH]cn1)NC(=O)[C@@H](NC(=O)[C@H](CC(C)C)NC(=O)[C@H](Cc1ccccc1)NC(=O)[C@H](CC(N)=O)NC(=O)[C@H](C)NC(=O)[C@H](CC(C)C)NC(=O)[C@H](CCCNC(=N)N)NC(=O)[C@H](CCC(N)=O)NC(=O)[C@@H](NC(=O)[C@H](C)NC(=O)[C@@H]1CSSC[C@H](NC(=O)[C@@H](N)CCCCN)C(=O)N[C@@H](CC(N)=O)C(=O)N[C@@H]([C@@H](C)O)C(=O)N[C@@H](C)C(=O)N[C@@H]([C@@H](C)O)C(=O)N1)[C@@H](C)O)C(C)C)C(=O)N[C@@H](CC(C)C)C(=O)N[C@@H](CO)C(=O)N[C@@H](CO)C(=O)N[C@H](C(=O)N[C@@H](CC(N)=O)C(=O)N[C@H](C(=O)NCC(=O)N[C@@H](CO)C(=O)N[C@@H](CC(N)=O)C(=O)N[C@H](C(=O)N[C@@H](Cc1ccc(O)cc1)C(N)=O)[C@@H](C)O)C(C)C)[C@@H](C)O [h-IAPP, human islet amyloid polypeptide]",cell toxicity of amyloid fibrils,rat INS-1 β-cells; amyloid fibrils added to cultured cells,No toxicity was observed
same,"cell toxicity (AlamarBlue cell viability, light microscopy)","rat INS-1 β-cells; peptide incubated in buffer at room temperature for various times, then applied to INS-1 β-cells",maximum toxicity was observed at intermediate time points
same,toxicity of resuspended pellet after ultracentrifugation,rat INS-1 β-cells; resuspended pellet added to beta cells,the resuspended pellet is not
same,toxicity of soluble phase after ultracentrifugation,rat INS-1 β-cells; supernatant added to beta cells,toxic to beta cells
same,MCP-1 and IL-1β mRNA expression,[1],increase in MCP-1 and IL-1β mRNA expression
same,RAGE binding of transiently populated intermediates (SPR),sRAGE; intermediates,binds transiently populated intermediates
same,RAGE binding of monomers or amyloid fibrils (SPR),sRAGE; monomers or amyloid fibrils,does not bind to h-IAPP monomers or amyloid fibrils
same,loss in viability relative to buffer treatment alone,mouse pancreatic islets,50%
same,toxicity to smooth muscle cells,[2]; h-IAPP intermediates,toxic to smooth muscle cells
same,toxicity to RAGE-null versus wild type SMCs,[2]; increasing amounts of h-IAPP toxic species,genetic deletion of RAGE protects SMCs from h-IAPP toxicity compared to WT SMCs
same,protein pelleted,[3],6.5%
same,solubility of toxic oligomers (centrifugation),[3],soluble and cannot be pelleted
same,solubility of toxic species (ultracentrifugation),[3],soluble
same,protein remained in solution,[3]; 20 min,93.5%
same,secondary structure (far UV CD),[4],"some partial helical structure, but no beta sheet structure"
